In BindingDB's records for doi:10.1016/0960-894X(96)00010-8 (1996) one finds IC50 data, which are given here for one molecule.

Molecules are shown by their SMILES.

The assay is described as follows: Inhibition of voltage sensitive calcium channel of embryonic chick dorsal root ganglion (DRG) cells.

With `COc1ccc(OC)c(-n2c(N)nc3cc(C(F)(F)F)ccc32)c1` [1-(2,5-Dimethoxy-phenyl)-5-trifluoromethyl-1H-benzoimidazol-2-ylamine], the IC50 turned out to be 32 µM.
